Structures are written as SMILES.

Two compounds from ChEMBL document CHEMBL1123738, “Kinetics of solvolysis and muscarinic actions of an N-methyl-N-(2-bromoethyl)amino analogue of oxotremorine” (J Med Chem, 1987) can be followed below.

Data set [1] is described as follows: Rate of cyclization, as measured by rate of formation of compound at 22 degree Centigrade. The data set is classed as ADME.
The nature of data set [2]: Rate of hydrolysis of compound at pH 7.3 and 37 degree Centigrade. The class given is ADME. The following applies: buffer.
Data set [3] in a line: Rate of cyclization, as measured by rate of formation of compound at 37 degree Centigrade. The class given is ADME.
Data set [4] can be described thus: Rate of hydrolysis of compound at pH 7.3 and 22 degree Centigrade. The class given is ADME. The following applies: buffer.
Data set [5] in a line: Half-life of compound at 22 degree Centigrade and pH 7.67 was determined. The class given is ADME.
The nature of data set [6]: Rate of cyclization of compound at 22 degree Celsius and pH 4.24. The data set is classed as ADME.
The nature of data set [7]: Half-life of compound at 22 degree Celsius and pH 4.24 was determined. The data set is classed as ADME.
The nature of data set [8]: Rate of cyclization of compound at 22 degree Centigrade and pH 6.25. The class given is ADME.
Data set [9] can be described thus: Equipotent potent ratio relative to carbachol (nicotinic activity). The class given is ADME.
Data set [10] can be described thus: Rate of cyclization of compound at 22 degree Celsius and pH 5.46. The class given is ADME.
The nature of data set [11]: Apparent first-order rate constant for bromide ion release at 37 degree Celsius and pH 7.3. The data set is classed as ADME.
Data set [12] in a line: First-order rate constant for cyclization of the free base. The class given is ADME.
A short description of data set [13]: Half-life of compound at 22 degree Celsius and pH 5.46 was determined. The data set is classed as ADME.
Data set [14] can be described thus: Half-life of compound at 22 degree Celsius and pH 6.25 was determined. The class given is ADME.
The nature of data set [15]: Rate of cyclization of compound at 22 degree Celsius and pH 7.29. The data set is classed as ADME.
Data set [16] is described as follows: pKa value of compound was determined. The class given is physicochemical.
Data set [17] in a line: Rate of cyclization of compound at 22 degree Celsius and pH 7.67. The class given is ADME.
Data set [18] in a line: Half-life of compound at 22 degree Celsius and pH 7.29 was determined. The data set is classed as ADME.

For the compound `C[N+]1(CC#CCN2CCCC2=O)CC1.[Br-]`, the values for the k1 in data set [1] and in [3] were 0.145 min⁻¹ and 0.845 min⁻¹, respectively. The k2 turned out to be 0.0395 min⁻¹ in [2] and 0.00829 min⁻¹ in data set [4].
Regarding `CN(CC#CCN1CCCC1=O)CCBr`, the half-life in data set [5] came out at 4.6 min; in [7], 261 min; in data set [13] it was 10.2 min; in data set [14], 6.1 min; in data set [18], 4.9 min. Also, the k1 in data set [6] was 0.00266 min⁻¹; in data set [8] it was 0.1146 min⁻¹; in data set [10] it was 0.0678 min⁻¹; in data set [15], 0.1406 min⁻¹; in [17], 0.1512 min⁻¹. The Molar ratio in data set [9] worked out at 12.3. The Rate constant in data set [11] amounted to 0.85 min⁻¹. Also, the k0 in data set [12] was found to be 0.146 min⁻¹. Moreover, the pKa in data set [16] worked out at 5.6.

In general, half-life refers to how long it takes for the measured level to halve. A word on the pKa: it is the pH at which an ionisable group is half protonated. A high value points to a weaker acid or stronger base.
